The experiment deals with bone marrow-derived mast cells (BMMCs). Nature of the experiment: Granule formation in BMMCs, tryptase immunostaining. In kind it is cell-based, mice. The conditions noted are these: 10 μM, vs control-treated cells. On the procedure: Mature mast cells were prepared in the same manner as described in Example 5. The BMMCs obtained were mounted on a glass slide and heat-fixed. The analysis of the preparation was performed according to the method described in Kosaka, T., Fukui, R., Matsui, M. et al. (2014) “RAGE, Receptor of Advanced Glycation Endoproducts, Negatively Regulates Chondrocytes Differentiation.” PLoS ONE 9(10): e108819. Briefly, the cells were reacted with a mouse anti-mast cell tryptase antibody (AB2378, Abcam, Tokyo, Japan) and then reacted with an FITC-conjugated anti-mouse IgG (Santa Cruz Biotechnology, Inc.) and 1 μg/mL DAPI (4′,6-diamino-2-phenylindole dihydrochloride). The fluorescent image was analyzed by EVOS® FL Cell Imaging System (Life Technologies Corp).
To confirm where the effect of fucoxanthin on granule formation in mast cells is specific rather than common to carotenoids, we compared granule formation between fucoxanthin-treated and astaxanthin-treated BMMCs by immunostaining of tryptase. The immunostaining assay was performed in the same manner as described in Example 6.

Entries after “also recorded” stand apart in the source; their conditions may differ.

Turning to `CC(=O)O[C@H]1CC(C)(C)C(=C=C/C(C)=C/C=C/C(C)=C/C=C/C=C(C)/C=C/C=C(\C)C(=O)C[C@@]23O[C@]2(C)C[C@@H](O)CC3(C)C)[C@](C)(O)C1` [fucoxanthin], the “granule formation (tryptase-positive cells / immunoreactivity against tryptase)” value is “remarkably reduced; also recorded: No tryptase-positive cell; also recorded: suppressed granule formation; also recorded: almost completely inhibited granule formation”.

The values are drawn from patent US9566262B2, “Itch suppression by fucoxanthin” (THE RITSUMEIKAN TRUST, priority 2015, dated 2017).
